Measurements reported in US9353120B2, “Tetraaza macrocyclic compound, preparation method thereof and use thereof” (Kyungpook National University Industry-Academic Cooperation …, priority 2009, dated 2016).
“Also recorded” adds a separate entry of the source. Where two headings read alike, the source gives them in different places.

How the values were obtained:
[1] = Electrochemical studies (cyclic voltammetry); format: physicochemical; conditions: pH 7.0, scan rate 100 mV/s; for reversibility of redox reaction: cyclic voltammogram
Procedure: Cyclic voltammetry was conducted using Biologic model SP-150 with three-electrode configuration. The system consisted of a glassy carbon (diameter=3 mm) as a working electrode, an Ag/AgCl (sat. KCl) reference electrode, and a Pt wire counter electrode. Samples were run in 0.1 M aqueous […] adjusted to pH 7.0 with glacial […] at scan rate 100 mV/s. The solutions were deoxygenated for 30 minutes with argon (Ar) prior to use and kept under Ar atmosphere during measurement.

[2] = in vivo
Procedure: (§1) The animals were sacrificed at 4 hours and 24 hours post-injection. Organs and tissues of interest were removed and weighed.

In vitro serum stability = format: in vitro ADME, bovine; conditions: FBS, 37° C., radio-TLC up to 24 hours, then 50° C. for 1 hour
Procedure: In vitro serum stability of ^64Cu-PCB-TE2A was tested by adding 20 μL of ^64Cu-PCB-TE2A (1-2 mM, 50 μCi) to 0.5 mL of fetal bovine serum (FBS). The solution was incubated at 37° C., and samples were analyzed by radio-TLC at 10, 30 and 60 minutes and at 2, 4, 10 and 24 hours post-addition to FBS (FIGS. 16-22). After 24 hours, the solution was incubated at 50° C. for 1 hour and once again samples were analyzed by radio-TLC (FIG. 23).

[3] = Rat biodistribution of 64Cu complexes
Procedure: as §1

[4] = Kinetic inertness via acid decomplexation (radio-TLC); format: physicochemical; conditions: 5 M and 10 M HCl, 90° C., radio-TLC at 6, 30 and 60 minutes
Procedure: Acid decomplexation of ^64Cu-PCB-TE2A was tested by adding 20 μL of ^64Cu-PCB-TE2A (1-2 mM, 52 μCi) to 100 μL of 5 M and 10 M HCl. The solution was heated at 90° C., and samples were analyzed by radio-TLC at 6, 30 and 60 minutes post-addition to 5 M and 10 M HCl (FIGS. 10-15).

in vivo = conditions: female, nude, mouse, iv, 16 uCi, total radioactivity, mean uptake in the tumor
[5] = buffer
Procedure: Acid decomplexation studies were performed under pseudo first-order conditions with the same concentration of 3 mmol in 5 M HCl at 90° C. Changes in the absorption maxima with time were monitored using a Shimadzu UV-Vis spectrophotometer (UV-1650PC) in thermostated cells. The decreasing absorbance at the λmax of each spectrum (Cu-PCB-TE2A: 655 nm, Cu-PCB-DO2A: 596 nm) was used to monitor the progress of the decomplexation reaction (FIGS. 24-25). Half-lives were calculated from the slopes of linear ln(absorbance) vs. time plots. Each experiment was repeated two to three times and mean values of half-lives are reported.

U87MG tumors = assay: MicroPET imaging; format: in vivo, female nude mice; conditions: U87MG tumor bearing nude mouse, 1 hour post-injection, 231 μCi
Procedure: PET scans and image analysis were performed using a microPET R4 rodent model scanner. […] At 1 hour after the injection, the mice were anesthetized with 1-2% isoflurane, positioned porne, and imaged. The images were reconstructed by the 2-dimensional ordered-subsets expectation maximum (OSEM) algorithm. No correction was necessary for attenuation or scatter correction.

[6] = Kidney, 24 hours post-injection
[7] = Muscle, 24 hours post-injection
[8] = Spleen, 24 hours post-injection

O=C([O-])CN1CCN2CCCN(CC1)CCN(CC(=O)[O-])CC2.[Cu+2] [Cu-PCB-DO2A]
reversibility of redox reaction [1]: irreversible redox reaction | reversibility of redox reaction ([1]; listed as CU-PCB-DO2A): irrev | Ered(V) vs Ag/AgCl (reduction potential) [1]: −0.69 V

O=C(O)CN1CCCN2CCCN(CCCN(CC(=O)O)CC2)CC1 [PCB-TE2A, 4,11-bis(carboxymethyl)-1,4,8,11-tetraazabicyclo[6.6.3]heptadecane]
Blood (rat biodistribution, cross-bridged and non-cross-bridged chelators) ([2]; Sprague-Dawley, 24 h): 0.012±0.004 % ID/organ | Kidney (rat biodistribution, cross-bridged and non-cross-bridged chelators) ([2]; Sprague-Dawley, 24 h): 0.064±0.009 % ID/organ | Liver (rat biodistribution, cross-bridged and non-cross-bridged chelators) ([2]; Sprague-Dawley, 24 h): 0.142±0.004 % ID/organ

O=C([O-])CN1CCN2CCCN(CC1)CCN(CC(=O)[O-])CC2.[64Cu+2] [^64Cu-PCB-DO2A]
clearance from the blood, liver and kidneys ([2]; rat): quickly cleared

O=C([O-])CN1CCCN2CCCN(CCCN(CC(=O)[O-])CC2)CC1.[64Cu+2] [^64Cu-PCB-TE2A]
in vitro serum stability (In vitro serum stability): intact in the FBS for 24 hours without degradation | % ID/g ([3]; Blood, 4 hours post-injection): 0.013 ± 0.003 % ID/g | % ID/organ ([3]; Blood, 4 hours post-injection): 0.192 ± 0.048 % ID/organ | % ID/g ([3]; Blood, 24 hours post-injection): 0.006 ± 0.001 % ID/g | % ID/organ ([3]; Blood, 24 hours post-injection): 0.108 ± 0.029 % ID/organ | % ID/g ([3]; Bone, 4 hours post-injection): 0.030 ± 0.004 % ID/g | % ID/organ ([3]; Bone, 4 hours post-injection): 0.656 ± 0.110 % ID/organ | % ID/g ([3]; Bone, 24 hours post-injection): 0.020 ± 0.005 % ID/g | % ID/organ ([3]; Bone, 24 hours post-injection): 0.569 ± 0.181 % ID/organ | % ID/g ([3]; Fat, 4 hours post-injection): 0.060 ± 0.013 % ID/g | % ID/organ ([3]; Fat, 4 hours post-injection): 1.686 ± 0.322 % ID/organ | % ID/g ([3]; Fat, 24 hours post-injection): 0.036 ± 0.005 % ID/g | % ID/organ ([3]; Fat, 24 hours post-injection): 1.328 ± 0.311 % ID/organ | % ID/g ([3]; Heart, 4 hours post-injection): 0.015 ± 0.001 % ID/g | % ID/organ ([3]; Heart, 4 hours post-injection): 0.011 ± 0.000 % ID/organ | % ID/g ([3]; Heart, 24 hours post-injection): 0.007 ± 0.002 % ID/g | % ID/organ ([3]; Heart, 24 hours post-injection): 0.006 ± 0.001 % ID/organ | % ID/g ([3]; Kidney, 4 hours post-injection): 0.421 ± 0.019 % ID/g | % ID/organ ([3]; Kidney, 4 hours post-injection): 0.794 ± 0.056 % ID/organ | % ID/g [3, 6]: 0.049 ± 0.007 % ID/g | % ID/organ [3, 6]: 0.112 ± 0.011 % ID/organ | % ID/g ([3]; Liver, 4 hours post-injection): 0.213 ± 0.032 % ID/g | % ID/organ ([3]; Liver, 4 hours post-injection): 1.679 ± 0.241 % ID/organ | % ID/g ([3]; Liver, 24 hours post-injection): 0.015 ± 0.001 % ID/g | % ID/organ ([3]; Liver, 24 hours post-injection): 0.122 ± 0.013 % ID/organ | % ID/g ([3]; Lungs, 4 hours post-injection): 0.022 ± 0.003 % ID/g | % ID/organ ([3]; Lungs, 4 hours post-injection): 0.022 ± 0.003 % ID/organ | % ID/g ([3]; Lungs, 24 hours post-injection): 0.013 ± 0.002 % ID/g | % ID/organ ([3]; Lungs, 24 hours post-injection): 0.015 ± 0.003 % ID/organ | % ID/g ([3]; Muscle, 4 hours post-injection): 0.033 ± 0.006 % ID/g | % ID/organ ([3]; Muscle, 4 hours post-injection): 2.743 ± 0.525 % ID/organ | % ID/g [3, 7]: 0.018 ± 0.006 % ID/g | % ID/organ [3, 7]: 1.987 ± 0.703 % ID/organ | % ID/g ([3]; Spleen, 4 hours post-injection): 0.025 ± 0.006 % ID/g | % ID/organ ([3]; Spleen, 4 hours post-injection): 0.013 ± 0.004 % ID/organ | % ID/g [3, 8]: 0.015 ± 0.009 % ID/g | % ID/organ [3, 8]: 0.009 ± 0.004 % ID/organ | % ID/g ([3]; Tail, 4 hours post-injection): 0.046 ± 0.039 % ID/g | % ID/organ ([3]; Tail, 4 hours post-injection): 0.252 ± 0.213 % ID/organ | % ID/g ([3]; Tail, 24 hours post-injection): 0.039 ± 0.014 % ID/g | % ID/organ ([3]; Tail, 24 hours post-injection): 0.276 ± 0.115 % ID/organ | clearance from the blood, liver and kidneys ([3]; words): lowest amount of ^64Cu remaining in the blood and these tissues | kinetic inertness towards acid decomplexation [4]: unusually high kinetic inertness towards acid decomplexation

N=C(N)NCCC[C@@H]1NC(=O)[C@H](CCCCNC(=S)Nc2ccc(CC3CN4CCCN(CC(=O)O)CCN(CCCN(CC(=O)O)CC4)C3)cc2)NC(=O)[C@@H](Cc2ccc(O)cc2)NC(=O)[C@H](CC(=O)O)NC(=O)CNC1=O (stereo partly shown) [metal not drawn]
tissue uptake at 1 h (in vivo): 4.76 %ID/g

Cu-PCB-TE2A
reversibility of redox reaction [1]: quasi-reversible redox reaction; also recorded: qitasi-rev | Ered(V) vs Ag/AgCl (reduction potential) [1]: −0.66 V | Half-life for acid decomplexation, 5M HCl, 90° C. [5]: 231(2)h

^64Cu-PCB-TE2A-c(RGDyK)
radiation uptake in the tumors (microPET) (U87MG tumors): very high in the tumors as compared to other organs
